Laboratory results taken from patent US20240156795A1, “METHODS AND COMPOSITIONS FOR THE TREATMENT OF DRUG RESISTANT TOPICAL INFECTIONS” (Lankenau Institute for Medical Research, priority 2020, published 2024).
“And” between values parts separate entries of the source, which are not always exact repeats. Equal values may be shown once. One block for each molecule: values may come before it.

Experiments:
[1] = i.v. infusion of >50% solutions, cardiac surgery trial (Bennett-Guerrero et al., 2009); cited from earlier work
onychomycosis = conditions: topical treatment of toenail fungus; cited from earlier work
Trichophyton rubrum = conditions: seven strains of Trichophyton rubrum; reported by others [28]; cited from earlier work
HIF1 = HIF1 stabilization in cells from B6 HIF-luciferase reporter mice, assayed ex vivo; format: cell-based, mouse
Procedure: Cells derived from B6 HIF-luciferase reporter mice were assayed ex vivo to detect the stabilization of HIF1 protein. Values are means of duplicate determinations ±SD. In the course of studies of inhibitors of proline hydroxylase-domain protein (PHD), an enzyme regulating cellular HIF1 levels, we observed that 10 μM ciclopirox enhanced the readout by 15-fold (screening data not shown). […] The details for the assay protocol are published elsewhere.

IDO1 = molecular target: T1, IDO1 (Homo sapiens, UniProt P14902); assay: IDO1 activity in U937 cells, kynurenine formation after IFN-γ induction; format: cell-based; conditions: IFN-γ induced, FIG. 2, read-out: IC50 for IDO inhibition in a cellular assay
T1 construct: endogenous in cells; host or cells: U937 cells, induced with IFN-γ
T1 sequence (P14902 whole entry): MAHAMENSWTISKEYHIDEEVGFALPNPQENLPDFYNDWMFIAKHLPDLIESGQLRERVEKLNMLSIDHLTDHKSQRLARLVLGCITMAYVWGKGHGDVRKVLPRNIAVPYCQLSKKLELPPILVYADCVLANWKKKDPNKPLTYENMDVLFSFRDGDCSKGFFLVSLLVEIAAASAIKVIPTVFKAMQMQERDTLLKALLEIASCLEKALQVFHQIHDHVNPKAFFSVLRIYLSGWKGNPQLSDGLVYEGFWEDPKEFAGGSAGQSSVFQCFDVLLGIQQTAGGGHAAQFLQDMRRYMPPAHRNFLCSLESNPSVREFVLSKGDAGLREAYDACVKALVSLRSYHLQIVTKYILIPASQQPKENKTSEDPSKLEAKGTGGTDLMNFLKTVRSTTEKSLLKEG
Procedure: IDO1 activity in U937 cells was assessed by spectrophotometric measurement of kynurenine formation in the medium at least 24 hours post-induction with IFN-γ. Values are means of duplicate determinations ±SD.
The IDOL enzyme was first recognized as an antimicrobial. The approved topical formulant ethyl pyruvate (EP) can also blunt IDO levels and reverse immunosuppression in the setting of cancer to enable immune eradication. […] This is finding is not previously reported in the literature. The details of the assay protocol are published elsewhere.

Compound: CCOC(=O)C(C)=O [EP, ethyl pyruvate]
- toxicity in humans [1]: No significant toxicities were reported

Compound: C=C1CCN([C@H](C)[C@](O)(Cn2cncn2)c2ccc(F)cc2F)CC1 [Jublia, efinaconazole]
- efficacy for complete clinical cure (onychomycosis): ≤ 18%

Compound: OB1OCc2cc(F)ccc21 [Kerydin, tavarborole]
- efficacy for complete clinical cure (onychomycosis): ≤ 10%

- EC50 (HIF1; Mus musculus, follow-up study, FIG. 1, read-out: apparent EC50 for HIF level stimulation): 5 µM
- IC50 (IDO1): ~2 µM
Compound: Cc1cc(C2CCCCC2)n(O)c(=O)c1 [ciclopirox, ciclopirox olamine]
- average MIC concentration (Trichophyton rubrum): ~16 μg/ml and ~77 μM
- enhancement of HIF readout (HIF1; 10 μM ciclopirox, screening data not shown): 15 fold
- maximal stimulation of HIF levels over the solvent control (HIF1; follow-up study, FIG. 1): ~35 fold
- efficacy for complete clinical cure (onychomycosis): ≤ 12%
